Experimental data from paper PMC6271944 (Molecules, 2014).

Key:
CYP2C11 = target: T1, CYP2C11 (Rattus norvegicus, UniProt P08683); experiment: CYP inhibition in rat liver microsomes, substrate cocktail, LC-MS/MS (diclofenac); type: in vitro ADME; settings: pH 7.4, probe diclofenac 5 μM, read-out: IC50 for RLM, CYP2C11 (table row CYP2C9)
T1 sequence (P08683 1-500): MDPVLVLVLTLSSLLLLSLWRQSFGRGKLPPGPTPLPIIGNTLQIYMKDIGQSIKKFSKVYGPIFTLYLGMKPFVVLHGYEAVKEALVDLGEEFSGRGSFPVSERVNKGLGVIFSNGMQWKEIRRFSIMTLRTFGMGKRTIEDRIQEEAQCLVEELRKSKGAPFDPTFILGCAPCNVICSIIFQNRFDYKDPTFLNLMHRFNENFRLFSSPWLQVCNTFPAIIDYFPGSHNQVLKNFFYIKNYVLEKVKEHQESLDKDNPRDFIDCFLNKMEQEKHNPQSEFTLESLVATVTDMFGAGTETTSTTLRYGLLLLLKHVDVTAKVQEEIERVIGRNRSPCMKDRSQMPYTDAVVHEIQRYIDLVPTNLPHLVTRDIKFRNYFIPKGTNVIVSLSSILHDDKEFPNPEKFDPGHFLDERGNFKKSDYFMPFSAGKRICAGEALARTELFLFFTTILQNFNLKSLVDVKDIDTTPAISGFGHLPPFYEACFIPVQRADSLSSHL
Excerpt: (§1) Positive controls (furafyline for CYP1A2, montelukast for CYP2C8, sulfaphenazole for CYP2C9, S-(+)-N-3-benzylnirvanol for CYP2C19, quinidine for CYP2D6, ketoconazole for CYP3A4) and specific substrates (phenacetin for CYP1A2, paclitaxel for CYP2C8, diclofenac for CYP2C9, S-mephenytoin for CYP2C19, dextromethorphan for CYP2D6, midazolam for CYP3A4) are consistent with our previous papers. The substrates were used at concentrations approximately equal to their respective Michaelis-Menten constant (Km) values: 10 μM phenacetin, 5 μM paclitaxel, 5 μM diclofenac, 200 μM S-mephenytoin, 5 μM dextromethorphan, and 2 μM midazolam. NADP^+ was added after a 15 min preincubation of all other components at 37 °C. After a given incubation time (30 min), the reactions were terminated by addition of 60 μL ice-cold acetonitrile containing gemfibrozil and buspirone as internal standards. Incubation samples were stored at −80 °C until used in liquid chromatography-tandem mass spectrometry (LC-MS/MS) analysis. The mixture was centrifuged at 3,500 rpm for 5 min. The supernatant was mixed with equal volume of a 1:1 mixture of methanol and water and 20 μL of the final mixture was used for LC-MS/ MS analysis. […]
(§2) The CYP inhibition potential were evaluated by measuring the formation of one or more metabolites of the test substrates. […]

CYP2C79 = experiment: CYP inhibition in rat liver microsomes, substrate cocktail, LC-MS/MS (S-mephenytoin); type: in vitro ADME; settings: pH 7.4, probe S-mephenytoin 200 μM, 95% CI in brackets, read-out: IC50 for RLM, CYP2C79 (table row CYP2C19)
Excerpt: as §1, §2

CYP3A2 = target: T2, CYP3A2 (Rattus norvegicus, UniProt P05183); experiment: CYP inhibition in rat liver microsomes, substrate cocktail, LC-MS/MS (midazolam); type: in vitro ADME; settings: pH 7.4, probe midazolam 2 μM, read-out: IC50 for RLM, CYP3A2 (table row CYP3A4)
T2 sequence (P05183 1-504): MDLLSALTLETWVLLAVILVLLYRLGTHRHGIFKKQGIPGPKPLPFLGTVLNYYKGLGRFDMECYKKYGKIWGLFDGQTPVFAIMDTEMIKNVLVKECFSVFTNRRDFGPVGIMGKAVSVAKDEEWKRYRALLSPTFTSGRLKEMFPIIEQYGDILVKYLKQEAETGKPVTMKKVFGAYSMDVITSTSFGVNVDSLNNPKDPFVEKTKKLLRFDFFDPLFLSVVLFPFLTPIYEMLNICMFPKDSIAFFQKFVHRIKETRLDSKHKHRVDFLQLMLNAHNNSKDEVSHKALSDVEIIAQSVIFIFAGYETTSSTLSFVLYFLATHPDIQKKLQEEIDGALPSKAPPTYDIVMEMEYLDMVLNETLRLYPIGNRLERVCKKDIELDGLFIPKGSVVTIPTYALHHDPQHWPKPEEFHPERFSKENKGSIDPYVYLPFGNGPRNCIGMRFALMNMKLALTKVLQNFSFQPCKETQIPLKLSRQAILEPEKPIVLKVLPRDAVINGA
Excerpt: as §1, §2

UGT1A1 = test system: UGT1A1; design: dose or concentration left out as unconfirmed; settings: cited from earlier work
UGT1A9 = test system: UGT1A9; design: dose or concentration left out as unconfirmed; settings: cited from earlier work
UGT2B7 = test system: UGT2B7; design: dose or concentration left out as unconfirmed; settings: cited from earlier work

SMILES: O=C(O)[C@H]1O[C@@H](Oc2cc3oc(-c4ccc(O)cc4)cc(=O)c3c(O)c2O)[C@H](O)[C@@H](O)[C@@H]1O [scutellarin, Scutellarin]
- IC50 at 30 min (CYP2C11): > 100 µM
- IC50 at 30 min (CYP2C79): 85.6 µM
- IC50 at 30 min (CYP3A2): > 100 µM
- inhibition towards the activity of UGT1A1 (UGT1A1): 48.8%
- inhibition towards the activity of UGT1A9 (UGT1A9): 36.1%
- inhibition towards the activity of UGT2B7 (UGT2B7): 73.8%
